Data from PubChem BioAssay AID504472 (NMMLSC, 2011).
The source made the active and inactive calls.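 How the source made its calls: active means compound moving the GFP-tagged Gln3 signal into the yeast nucleus, as rapamycin does; inactive means the rest.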

Tested on: S. cerevisiae Gln3-GFP nuclear translocation, microscopy
Experiment: Gln3-GFP nuclear translocation in yeast, SAR follow-up, yeast TOR pathway modulator project, S. cerevisiae, GFP fusion, microscopy (AID 504472)
Conditions: at 30 µM; hits give high values

Row | SMILES | nuclear translocation (1=yes)
1 | CNc1nc(N)c([N+](=O)[O-])c(Nc2cccc(F)c2)n1 | 0 (inactive)
2 | CNc1nc(N)c([N+](=O)[O-])c(Nc2ccccc2)n1 | 0 (inactive)
3 | CNc1nc(N)c([N+](=O)[O-])c(Nc2cccc(Cl)c2)n1 | 0 (inactive)
4 | CO[C@H]1C[C@@H]2CC[C@@H](C)[C@@](O)(O2)C(=O)C(=O)N2CCCC[C@H]2C(=O)O[C@H]([C@H](C)C[C@@H]2CC[C@@H](O)[C@H](OC)C2)CC(=O)[C@H](C)/C=C(\C)[C@@H](O)[C@@H](OC)C(=O)[C@H](C)C[C@H](C)/C=C/C=C/C=C/1C | 1
